# In US20190210973A1, “COMPOUNDS AND METHODS FOR TREATMENT OF CYSTIC FIBROSIS” (The Curators of the University of Missouri, priority 2018, published 2019):
# What was measured:
# Format in all cases: cell-based
# G551D-CFTR = target: T1, G551D-CFTR (Homo sapiens, UniProt P13569, G551D); assay: Patch-clamp recording of G551D-CFTR currents in excised inside-out patches of transfected CHO cells; conditions: for fold increase of G551D-CFTR currents (ILZH+ATP/IATP): single application
# T1 construct: The cDNA constructs of CFTR (G551D and delF508) were co-transfected with peGFP-C3; expressed in transfected cells; host or cells: CHO cells (ATCC), transient co-transfection with pEGFP-C3 (GFP as a separate marker, not fused)
# T1 sequence (P13569 whole entry G551D, the tested form may be a part): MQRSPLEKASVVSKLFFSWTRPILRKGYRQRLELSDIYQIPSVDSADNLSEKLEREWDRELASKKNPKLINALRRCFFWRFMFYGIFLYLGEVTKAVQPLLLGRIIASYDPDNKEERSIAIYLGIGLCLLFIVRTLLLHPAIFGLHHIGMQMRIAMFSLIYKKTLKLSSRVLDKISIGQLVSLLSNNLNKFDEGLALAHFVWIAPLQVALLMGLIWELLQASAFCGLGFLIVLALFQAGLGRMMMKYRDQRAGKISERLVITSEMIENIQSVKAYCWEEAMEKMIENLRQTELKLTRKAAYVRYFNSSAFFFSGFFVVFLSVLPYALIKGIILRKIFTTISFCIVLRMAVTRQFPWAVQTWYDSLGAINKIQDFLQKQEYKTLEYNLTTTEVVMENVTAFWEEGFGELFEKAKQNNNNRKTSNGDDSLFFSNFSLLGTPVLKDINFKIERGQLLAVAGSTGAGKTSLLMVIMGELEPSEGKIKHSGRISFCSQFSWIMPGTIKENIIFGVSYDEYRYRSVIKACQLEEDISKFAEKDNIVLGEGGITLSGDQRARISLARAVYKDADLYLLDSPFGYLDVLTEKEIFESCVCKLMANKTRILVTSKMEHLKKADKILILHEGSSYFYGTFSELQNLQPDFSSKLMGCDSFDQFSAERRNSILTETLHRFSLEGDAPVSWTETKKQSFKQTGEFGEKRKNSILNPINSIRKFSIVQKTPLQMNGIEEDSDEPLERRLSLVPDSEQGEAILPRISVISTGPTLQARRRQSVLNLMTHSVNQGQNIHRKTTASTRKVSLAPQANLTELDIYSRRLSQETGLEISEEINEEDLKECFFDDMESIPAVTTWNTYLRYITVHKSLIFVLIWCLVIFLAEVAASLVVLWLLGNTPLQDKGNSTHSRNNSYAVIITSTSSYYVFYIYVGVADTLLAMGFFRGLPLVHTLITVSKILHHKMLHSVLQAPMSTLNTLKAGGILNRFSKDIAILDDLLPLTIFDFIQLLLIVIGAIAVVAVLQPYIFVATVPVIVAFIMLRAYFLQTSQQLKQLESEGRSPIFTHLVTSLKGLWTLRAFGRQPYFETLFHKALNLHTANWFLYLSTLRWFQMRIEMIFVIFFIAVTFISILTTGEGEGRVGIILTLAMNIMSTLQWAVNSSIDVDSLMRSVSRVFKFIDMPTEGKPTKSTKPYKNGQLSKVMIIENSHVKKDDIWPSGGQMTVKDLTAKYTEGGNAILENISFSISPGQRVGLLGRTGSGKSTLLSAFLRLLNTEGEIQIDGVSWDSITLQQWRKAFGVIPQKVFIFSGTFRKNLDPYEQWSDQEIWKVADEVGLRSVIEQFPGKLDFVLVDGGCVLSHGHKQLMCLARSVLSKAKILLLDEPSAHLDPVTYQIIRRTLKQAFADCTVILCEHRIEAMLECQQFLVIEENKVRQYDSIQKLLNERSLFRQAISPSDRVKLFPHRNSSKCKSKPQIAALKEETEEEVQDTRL
# From the text: (§1) Patch-clamp is considered the gold standard for assessing directly ion channel function in real time. By attaching a glass microelectrode on the surface of a cell, it is possible to record the currents generated by channels proteins that are present in this tiny “patch” of cell membranes. Since millions of ions pass through a single ion channel pore per second, the resulting microscopic currents from a single channel protein molecule can be detected with modem patch-clamp amplifiers. As ion channels (a conductor in electricity term) are arranged in parallel in the cell membrane, it is also possible to assay a group of ion channels by monitoring macroscopic currents representing the sum of currents from individual channels. Microscopic recordings allow artisans to examine exquisitely the effects of compounds on the Po and kinetic parameters of CFTR channels; whereas macroscopic recordings provide an assay not only to quantify the overall effects of compounds on N×Po×i, but also monitor the stability of the CFTR currents in real time.
# (§2) Chinese hamster ovary (CHO) cells were grown at 37° C. in Dulbecco's modified Eagle's medium supplemented with 10% fetal bovine serum. Cells were subcultured into 35-mm tissue culture dishes 1 day before transfection. PolyFect transfection reagent (QIAGEN) was used to cotransfect CFTR cDNA and pEGFP-C3 (Takara Bio Inc.), which encodes green fluorescence proteins, into CHO cells. After transfection, cells were incubated at 27° C. for at least 2 days before electrophysiological experiments were performed.
# (§3) Glass chips carrying the transfected cells were transferred to a chamber located on the stage of an inverted microscope (IX51; Olympus). Borosilicate capillary glasses were used to make patch pipettes using a two-stage micropipette puller (PP-81, Narishige, Japan). The pipettes were polished with a homemade microforge to a resistance of 2-4 MΩ in the bath solution. Once the seal resistance reached >40 GΩ, membrane patches were excised into an inside-out mode. Subsequently, the pipette was moved to the outlet of a three-barrel perfusion system and perfused with 25 IU PKA and 2 mM ATP until the CFTR current reached a steady state. A patch-clamp amplifier (EPC10, HEKA, Germany) was used to record electrophysiological data at room temperature. The data were filtered online at 100 Hz with an eight-pole Bessel filter (LPF-8; Warner Instruments) and digitized to a computer at a sampling rate of 500 Hz. […] Membrane potential was held at −30 or −50 mV for all recordings.
# (§4) Disease-causing mutations (G551D and delF508) were made with PCR-based site-directed mutagenesis using the Pfu Ultra II (Agilent Technologies). […] The cDNA constructs of CFTR (G551D and delF508) were co-transfected with peGFP-C3 (Takara Bio Inc.) encoding the green fluorescent protein into CHO cells using PolyFect transfection reagent (QIAGEN). The transfected cells were transferred into 35 mm tissue culture dishes containing one layer of sterilized glass chips for cells to grow on. The transfected cells were incubated at 27° C. for 2-7 days before electrophysiological experiments were performed.
# (§5) All patch-clamp experiments were carried out in the excised inside-out configuration. Micropipettes made of borosilicate capillary glass were pulled with a two-stage vertical puller (Narishige) and then fire-polished with a homemade microforge to reach a pipet resistance of 2-4 MΩ when the pipettes were filled with a standard inside-out pipet solution that contains: 140 mM N-Methyl-D-glucamine-Cl (NMDG-Cl), 2 mM MgCl2, 5 mM CaCl2) and 10 mM HEPES, adjusted to pH 7.4 with NMDG.
# delF508-CFTR [1] = target: T2, delF508-CFTR (Homo sapiens, UniProt P13569, DEL508-508); assay: Patch-clamp recording of delF508-CFTR currents in excised inside-out patches of transfected CHO cells
# T2 sequence (P13569 with tags, fused parts or gaps DEL508-508): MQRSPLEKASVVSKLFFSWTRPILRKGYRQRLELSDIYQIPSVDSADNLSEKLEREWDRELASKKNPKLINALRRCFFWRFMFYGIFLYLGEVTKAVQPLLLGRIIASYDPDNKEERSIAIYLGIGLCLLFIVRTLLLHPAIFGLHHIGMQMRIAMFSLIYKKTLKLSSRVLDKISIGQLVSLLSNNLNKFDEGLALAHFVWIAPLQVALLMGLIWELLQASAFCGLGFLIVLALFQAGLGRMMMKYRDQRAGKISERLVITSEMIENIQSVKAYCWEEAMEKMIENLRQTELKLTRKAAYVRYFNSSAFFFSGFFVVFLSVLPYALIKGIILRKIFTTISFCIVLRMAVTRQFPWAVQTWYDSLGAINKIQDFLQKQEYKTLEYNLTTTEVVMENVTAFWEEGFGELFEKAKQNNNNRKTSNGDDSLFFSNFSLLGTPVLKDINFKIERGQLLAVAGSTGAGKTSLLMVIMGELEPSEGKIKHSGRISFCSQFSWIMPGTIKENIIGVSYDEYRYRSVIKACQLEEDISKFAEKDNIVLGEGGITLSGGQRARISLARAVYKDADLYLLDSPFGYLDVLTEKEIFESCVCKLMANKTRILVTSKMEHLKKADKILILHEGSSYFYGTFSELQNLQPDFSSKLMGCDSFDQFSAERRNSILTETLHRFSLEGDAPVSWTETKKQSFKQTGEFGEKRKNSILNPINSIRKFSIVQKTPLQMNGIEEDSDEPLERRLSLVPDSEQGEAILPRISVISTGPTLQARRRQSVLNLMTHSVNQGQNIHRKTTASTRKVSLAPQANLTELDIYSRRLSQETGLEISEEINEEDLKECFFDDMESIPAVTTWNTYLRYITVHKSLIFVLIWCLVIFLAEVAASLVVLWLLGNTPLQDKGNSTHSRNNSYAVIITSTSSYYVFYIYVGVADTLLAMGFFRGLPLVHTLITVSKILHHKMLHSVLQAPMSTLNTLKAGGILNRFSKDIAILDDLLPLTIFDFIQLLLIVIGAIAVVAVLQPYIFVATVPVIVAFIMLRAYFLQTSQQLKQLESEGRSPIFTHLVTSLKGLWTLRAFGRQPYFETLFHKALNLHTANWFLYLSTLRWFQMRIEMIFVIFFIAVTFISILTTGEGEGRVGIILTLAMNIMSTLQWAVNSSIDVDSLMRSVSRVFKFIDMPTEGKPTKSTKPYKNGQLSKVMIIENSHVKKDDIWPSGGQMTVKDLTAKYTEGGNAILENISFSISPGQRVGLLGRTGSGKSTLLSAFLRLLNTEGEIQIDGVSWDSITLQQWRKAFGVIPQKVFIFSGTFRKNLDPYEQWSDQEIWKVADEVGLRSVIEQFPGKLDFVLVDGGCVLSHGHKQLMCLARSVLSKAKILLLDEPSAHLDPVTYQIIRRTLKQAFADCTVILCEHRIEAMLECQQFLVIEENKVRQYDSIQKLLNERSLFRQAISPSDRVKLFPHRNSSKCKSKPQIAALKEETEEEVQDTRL
# From the text: as §1, §2, §3, §4, §5
# delF508-CFTR [2] = target: T2, delF508-CFTR; assay: Western blot of delF508-CFTR membrane (surface) expression, Band C; parameters: delF508 stably-transfected C127 cells were cultured in DMEM with 10% FBS in 6-well plates; expressed in transfected cells; host or cells: C127 cells stably expressing delF508-CFTR; conditions: for surface expression of delF508-CFTR (Band C, corrected to vimentin, DMSO = 100): C127 cells
# From the text: The amount of CFTR proteins in the cell membrane can be determined with Western blot analysis. Like all membrane proteins in the cell, the CFTR protein is synthesized in the endoplasmic reticulum (ER), translocated to the Golgi apparatus for glycosylation before trafficked to the plasma membrane. Because of the addition of complex sugar molecules to CFTR, the molecular weight of “mature” or post-Golgi CFTR in the plasma membrane is higher than that of newly synthesized proteins in the ER. Thus, in Western blot, it is possible to discern two distinct bands: band C representing high molecular weight, mature CFTR, and band B low molecular weight, immature CFTR. While wild-type proteins are present mostly as band C, Class II disease-associated mutations such as delF508 causes a drastic diminution of band C, resulting in an effective decrease of N in the formula N×Po×i. The effects of the reagents (or CFTR correctors) that enhance band C can thus be quantitatively assessed with the Western blot analysis. By the same token, any interactions between different compounds, with positive or negative impact on band C, can be determined with this assay.
# Western blot experiments were carried out in both transient expression system (CHO cells) and a stable cell line (C127 cells). CHO cells, grown in 35 mm dishes, were transfected with delF508-CFTR construct in pcDNA plasmids using X-tremeGENE (Roche). Six hours after transfection, tested compounds were added to the medium. In case of delF508-CFTR-expressing stable C127 cells, compounds were added to the medium at about 30% confluence. In both cases, cells were lysed 18 hours post drug treatment using 1×SDS loading buffer. Cell lysates were sheared by pushed through 18G needles. Whole cell lysate were separated in 4˜20% gradient gels (Bio-Rad Laboratories) and transferred onto nitrocellulose membranes. The membranes were blocked with 5% milk in TBST buffer (20 mM Tris, 137 mM NaCl, 0.1% Tween 20) at 4° C. overnight. The membranes were then probed with anti-CFTR antibody (AB596 from the Cystic Fibrosis Foundation) and anti-vimentin antibody as a control (Santa Cruz Biotechnology) at room temperature for two hours. The membranes were washed with TBST five times and then incubated with anti-mouse IgG, HRP-linked antibody (Cell Signaling Technology) at room temperature for one hour. The membranes were washed three times with TBST and developed with chemiluminescence reagent (Thermo Scientific). The luminescence was detected and quantified by a Molecular Image Chemi Doc (Bio-Rad Laboratories).
# For Western blotting experiments, delF508 stably-transfected C127 cells were cultured in DMEM with 10% FBS in 6-well plates. Different tested compounds were added to the culture medium within 24 hours of passage to the desired concentration. Cells were lysed 18 hours post drug treatment using 1×SDS loading buffer. Cell lysates were sheared by pushed through 18G needles. Whole cell lysates were separated in 4-20% gradient gels (Bio-Rad Laboratories) and transferred onto nitrocellulose membranes. The membranes were blocked with 5% milk in TBST buffer (20 mM Tris, 137 mM NaCl, 0.1% Tween 20) at 4° C. overnight. The membranes were then probed with anti-CFTR antibody (AB660 from CFTR foundation) and anti-vimentin antibody as a loading control (Santa Cruz Biotechnology) at room temperature for two hours. The membranes were washed with TBST five times and then incubated with anti-mouse IgG, HRP linked antibody (Cell Signaling Technology) at room temperature for one hour. The membranes were washed three times with TBST and developed with chemiluminescence reagent (Thermo Scientific). The luminescence was detected by a Molecular Image Chemi Doc (Bio-Rad Laboratories). […]
smiles,measurement,setting,value
"CNCCCCOc1ccc(-c2n[nH]c3cc(Br)ccc23)c(F)c1 [LZH-00025, 4-(4-(6-bromo-1H-indazol-3-yl)-3-fluorophenoxy)-N-methylbutan-1-amine]",fold increase of G551D-CFTR currents (ILZH+ATP+VX-770/IATP),"G551D-CFTR; combined application with VX-770, 0.2 μM LZH compound","8.0 ± 1.0, N = 3 fold"
same,fold increase of G551D-CFTR currents (ILZH+ATP+VX-770/IATP),"G551D-CFTR; combined application with VX-770, 1 μM LZH compound","11.0 ± 2.9, N = 4 fold"
same,fold increase of G551D-CFTR currents (ILZH+ATP+VX-770/IATP),"G551D-CFTR; combined application with VX-770, 5 μM LZH compound","9.7 ± 0.7, N = 4 fold"
same,fold increase of G551D-CFTR currents (ILZH+ATP/IATP),G551D-CFTR; 1 μM,"2.1 ± 0.2, N = 11 fold"
same,fold increase of G551D-CFTR currents (ILZH+ATP/IATP),G551D-CFTR; 5 μM,"4.9 ± 0.7, N = 14 fold"
same,fold increase of G551D-CFTR currents (ILZH+ATP/IATP),G551D-CFTR; 20 μM,"7.4 ± 0.5, N = 8 fold"
same,fold increase of delF508-CFTR currents (ILZH+ATP+VX-770/IATP),"delF508-CFTR [1]; combined application with VX-770 (200 nM), 2.5 μM LZH compound","7.7 ± 2.0, N = 3 fold"
same,fold increase of delF508-CFTR currents (ILZH+ATP+VX-770/IATP),"delF508-CFTR [1]; combined application with VX-770, 0.5 μM LZH compound","7.3 ± 0.8, N = 3 fold"
same,fold increase of delF508-CFTR currents (ILZH+ATP/IATP),"delF508-CFTR [1]; single application, 5 μM","3.6 ± 0.9, N = 4 fold"
same,"surface expression of delF508-CFTR (Band C, corrected to vimentin, DMSO = 100)","delF508-CFTR [2]; 3 μM VX-809 + 0.1 μM LZH compound, lane 5","263 ± 27, N = 4"
same,"surface expression of delF508-CFTR (Band C, corrected to vimentin, DMSO = 100)","delF508-CFTR [2]; 3 μM VX-809 + 0.5 μM LZH compound, lane 4","323 ± 14, N = 4"
same,"surface expression of delF508-CFTR (Band C, corrected to vimentin, DMSO = 100)","delF508-CFTR [2]; 3 μM VX-809 + 5 μM LZH compound, lane 3","300 ± 42, N = 4"
same,influence on the effect of Lumacaftor (VX-809) on membrane expression of delF508-CFTR (words),delF508-CFTR [2]; added to 3 μM VX-809,retains or even enhances the effect of Lumacaftor
